Measured values published in patent US20210121376A1, “PEPTIDES ENCAPSULATED IN LECITHIN AND ALGINATE” (INFINITEC ACTIVOS, S.L., priority 2018, published 2021).
Peptide text beside a SMILES is read from it. * marks the point of attachment. Palmitoyl = CCCCCCCCCCCCCCCC(=O)*; X1 = NCOCCOCCOCCCN*

Key:
papain [1] = target: T1, papain (Carica papaya, UniProt P00784); assay: Peptide degradation by proteases (Example 8a, PP-4 peptide); format: in vitro ADME
T1 sequence (P00784 134-345): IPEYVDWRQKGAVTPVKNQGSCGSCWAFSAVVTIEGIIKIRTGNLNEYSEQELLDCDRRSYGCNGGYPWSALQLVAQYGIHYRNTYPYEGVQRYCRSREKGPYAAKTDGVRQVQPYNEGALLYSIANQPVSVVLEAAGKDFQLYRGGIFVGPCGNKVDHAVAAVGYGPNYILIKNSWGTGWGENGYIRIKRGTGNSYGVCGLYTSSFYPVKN
Description: a) 5 mg of each of the formulations of Example 1b and Comparative example 6b were incubated at 40° C. with 20 mg of papain. Samples were taken at study times 0 h, 0.3 h, 0.6 h, and 5 h after the addition of papain, centrifuged at 1400 rpm for 1 min, and the supernatant was filtered using a 0.45 μm filter and analyzed by HPLC.
(§1) HPLC analysis was carried out in a Waters 996 instrument with a diode array detector equipped with Waters 2695 separations module and Millenium software; an Xbridge BEH130 C18 4.6×100 mm 3.5 μm reversed phase column by Waters was used. UV detection was performed at 220 nm and a mobile phase B gradient of 5 to 100% was performed for 8 minutes at 1.0 ml/min of flow. Under these conditions, the retention time of the peptide of formula (I) wherein R is palmitoyl (Matrixyl®, PP-4) is 6.4 min. Mobile phase A: 0.045% TFA/H2O, mobile phase B: 0.036% TFA/acetonitrile.

papain [2] = target: T1, papain; assay: Peptide degradation by proteases (Example 8b, PH-26 peptide); format: in vitro ADME
Description: b) 20 mg of papain were added to the formulation of Comparative example 6c, and 1.5 mg of papain were added to a solution of 40 mg of the formulation of Example 1c in 1.0 mL of PBS buffer. Both samples were incubated at 40° C. Aliquots were taken at study times 0 h, 0.17 h, 0.3 h and 24 h, after the addition of papain, centrifuged at 1400 rpm for 1 min, and the supernatant was filtered using a 0.45 μm filter and analyzed by HPLC.
as §1

| Structure (SMILES) | degradation with papain (in words) (papain [1]) | degradation with papain (in words) (papain [2]) |
| --- | --- | --- |
| CCCCCCCCCCCCCCCC(=O)N[C@@H](CCCCN)C(=O)N[C@H](C(=O)N[C@H](C(=O)N[C@@H](CCCCN)C(=O)N[C@@H](CO)C(=O)O)[C@@H](C)O)[C@@H](C)O [PP-4, Palm-L-Lys-L-Thr-L-Thr-L-Lys-L-Ser-OH] (Palmitoyl-KTTKS-OH) | completely degraded | – |
| CCCCCCCCCCCCCCCC(=O)N[C@@H](CCCCN)C(=O)N[C@@H](C)C(=O)N[C@@H](CCC(N)=O)C(=O)N[C@@H](CCCCN)C(=O)N[C@@H](CCCNC(=N)N)C(=O)N[C@@H](Cc1ccccc1)C(=O)NCCCOCCOCCOCN [PH-26 peptide, R1-L-Lys-L-Ala-L-Gln-L-Lys-L-Arg-L-Phe-NH—(CH2)3—O—(CH2)2—O—(CH2)2—O—(CH2)—NH2] (Palmitoyl-KAQKRF-X1; N-terminus and C-terminus assumed) | – | nearly completely degraded |
